# Laboratory results published in patent US20210220450A1, “TREATMENT OF AN IOP CONDITION” (The Research Foundation for The State University of New York, priority 2013, published 2021).
# Experiments:
# Mmp-9KO mice = experiment: Outflow facility in protein treated Mmp-9KO mouse eyes (Example 16); assay type: in vivo; conditions: intravitreal protein, p>0.05
# Method: (§1) PlatKO and Mmp-9KO mice were also not given steroids prior to protein injections (FIG. 10c). Within each cohort, animals were divided into two groups:
# (§2) 1) Animals that received unilateral intravitreal injection with 2 μl of tPA (5 μg/μl, Actilyse; Boehringer Ingelheim, Ingelheim am Rhein, Germany) while the contralateral eye received 2 μl of BSA (5 μg/μl; Gold Biotechnology, St Louis, Mo., USA), and 2) Animals that received unilateral intravitreal injections with 2 μl of non-enzymatically active tPA (NE-tPA/S478A-tPA) (5 μg/μl; Innovative Research, Novi, Mich., USA) while the contralateral eye received 2 μl of BSA. Animals were euthanized two days after intravitreal injection.
# (§3) Outflow facility determination: Mouse eyes were enucleated immediately after euthanasia. Outflow facility was determined using a constant pressure method, as previously described. Pressure was raised in steps of 4 cmH2O, from 8 cmH2O (5.88 mmHg) to 32 cmH2O (23.54 mmHg) by increasing the height of a column of fluid of BSS. Steady state was initially achieved after 10 minutes. […] Flow was constantly measured via a microfluidic flow sensor (0.07-1.5 uL/min, MFS1; Elveflow, Paris, France). […] Any eyes that developed visible leaks during outflow facility determination, or that had pressure-flow correlations with R^2<0.9, were excluded from analysis but were used for RNA quantification.
# PlatKO mice = experiment: Outflow facility in protein treated PlatKO mouse eyes (Example 14); assay type: in vivo; conditions: intravitreal protein
# Method: as §1, §2, §3
# [1] = tested on: MMP-1, MMP-2, MMP-9, MMP-13, PLAT, PAI-1 mRNA; experiment: qRT-PCR gene expression in sheep TM and ciliary processes after tPA (Examples 6, 7); assay type: in vivo
# Description: Methods. Tissue Collection and Isolation of RNA. After animals were euthanized, eyes were immediately enucleated. Eyes were then opened anterior to the equator using a razor blade. The lens was removed from the anterior part, and the tissue was immersed in RNA stabilizing agent (RNAlater; Ambion, Carlsbad, Calif.) and placed […] for transportation to the United States. Upon arrival in the United States, TM and ciliary processes (CP) were dissected on ice in the presence of RNA stabilizing agent as described previously. Dissected tissue was homogenized, and total RNA was extracted using TRIzol reagent (Gibco, Carlsbad, Calif.). Briefly, the tissue was homogenized in TRIzol, and chloroform was added to separate proteins from RNA. After centrifugation, the RNA-containing supernatant was aspirated. The RNA was precipitated with isopropanol, washed with 75% ethanol, treated with DNase, and column purified using a commercial kit (RNAeasy Mini Kit; Qiagen, Valencia, Calif.) in accordance with the manufacturer's instructions. RNA concentrations were determined with a spectrophotometer (Nanodrop; Thermo Scientific, Wilmington, Del.) and the 260:280-nm absorbance ratio was calculated to determine RNA purity.
# Quantitative Real-Time PCR (qRT-PCR) The RNA samples were reverse transcribed with random hexamers to cDNA using a reverse transcription kit (Quantitect; Qiagen) in accordance with the manufacturer's instructions. Quantitative RT-PCR was performed using a commercial kit (SYBR Green RT-PCR Reagents Kit; Applied Biosystems, Carlsbad, Calif.) in an ABI PRISM 7900HT sequence detector (Applied Biosystems). […] Plasminogen activator inhibitor 1 (PAI-1) mRNA expression was measured in both TM and ciliary processes tissues. Relative quantification of gene expression was performed using the standard curve method. […] The DCt was calculated as the difference in Ct values derived from the target gene and the 18S gene. The DDCt was calculated as DCt of the normalized assayed genes in the treated samples minus DCt of normalized assayed genes in the naïve control samples. […]
# [2] = intravitreal use; toxicity attributed to arginine in commercial preparations; cited from earlier work
# Mmp-2, Mmp-9, Mmp-13 [3] = experiment: Mmp expression in TA and protein treated C57BL/6J eyes (Example 13); assay type: in vivo, mouse; conditions: vs BSA treated controls
# C57BL/6J mice = experiment: Outflow facility in protein treated C57BL/6J eyes not exposed to steroids (Example 15); assay type: in vivo, mouse; conditions: C57BL/6J not exposed to steroids, intravitreal protein
# Method: 1) Animals receiving bilateral steroid (TA) injection subconjunctivally five days prior to protein injection (FIG. 10b) and 2) Animals not receiving subconjunctival steroids (FIG. 10c).
# as §2, §3
# MMP-2, MMP-9, MMP-13 [4] = experiment: MMP expression in PA treated HTM cells (Examples 17, 18); assay type: cell-based; conditions: PA treated HTM cells
substance,measurement,setting,value
tissue plasminogen activator [tPA],effect on outflow facility,Mmp-9KO mice,did not increase
same,increase in outflow facility compared to BSA treated eyes,PlatKO mice,46%
same,"outflow facility, mean±standard deviation","PlatKO mice; no steroid, two days",89±27×10^−5 μl/min/mmHg
same,PLAT expression,[1]; sheep TM (FIG. 7),down-regulates
same,expression of MMP1 and MMP9,[1]; sheep TM (FIG. 7),up-regulates
same,"expression of MMP1, MMP2, MMP9, MMP13 and PAI-1",[1]; sheep trabecular meshwork and ciliary processes,up-regulates
same,doses with reported retinal toxicity,[2],50 to 100 µg
same,"Mmp-2, Mmp-9 and Mmp-13 expression","Mmp-2, Mmp-9, Mmp-13 [3]",significant upregulation
same,"outflow facility, mean±standard deviation",C57BL/6J mice,102.7±19.5×10^−5 μl/min/mmHg
same,MMP-2 expression,"MMP-2, MMP-9, MMP-13 [4]; between treatments",not significantly different
same,"expression (FIG. 17C, MMP-9)","MMP-2, MMP-9, MMP-13 [4]; vs PA+BSA",significant upregulation
